{
  "source": "ChEMBL document CHEMBL1131780",
  "about": "(Bioorg Med Chem Lett, 1999)",
  "key": {"[1]": {"target": "T1, Muscarinic acetylcholine receptor M1 (Homo sapiens, UniProt P11229)", "T1 sequence (P11229 whole entry)": "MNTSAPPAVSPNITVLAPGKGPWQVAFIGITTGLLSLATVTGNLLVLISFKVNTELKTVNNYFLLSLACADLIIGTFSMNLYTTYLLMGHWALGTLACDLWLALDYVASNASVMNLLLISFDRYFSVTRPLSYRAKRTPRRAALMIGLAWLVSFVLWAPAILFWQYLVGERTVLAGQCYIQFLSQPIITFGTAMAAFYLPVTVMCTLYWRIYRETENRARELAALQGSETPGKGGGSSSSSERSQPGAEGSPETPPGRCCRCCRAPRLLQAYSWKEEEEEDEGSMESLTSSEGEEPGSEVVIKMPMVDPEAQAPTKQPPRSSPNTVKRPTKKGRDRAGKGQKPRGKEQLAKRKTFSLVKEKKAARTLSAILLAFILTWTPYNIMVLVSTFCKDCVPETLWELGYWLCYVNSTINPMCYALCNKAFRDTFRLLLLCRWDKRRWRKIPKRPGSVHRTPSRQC", "assay": "Affinity towards human M1 receptor expressed in CHO cells using [3H]QNB as radioligand", "type": "cell-based"}, "[2]": {"target": "T2, Muscarinic acetylcholine receptor M1 (Homo sapiens) (UniProt P11229)", "T2 sequence (whole entry)": "T1 sequence (P11229 whole entry)", "assay": "Efficacy expressed as PI (percentage of carbachol) against human M1 receptor expressed in CHO cells", "type": "functional, cell-based"}, "[3]": {"target": "T3, Muscarinic acetylcholine receptor M2 (Homo sapiens) (UniProt P08172)", "T3 sequence (whole entry)": "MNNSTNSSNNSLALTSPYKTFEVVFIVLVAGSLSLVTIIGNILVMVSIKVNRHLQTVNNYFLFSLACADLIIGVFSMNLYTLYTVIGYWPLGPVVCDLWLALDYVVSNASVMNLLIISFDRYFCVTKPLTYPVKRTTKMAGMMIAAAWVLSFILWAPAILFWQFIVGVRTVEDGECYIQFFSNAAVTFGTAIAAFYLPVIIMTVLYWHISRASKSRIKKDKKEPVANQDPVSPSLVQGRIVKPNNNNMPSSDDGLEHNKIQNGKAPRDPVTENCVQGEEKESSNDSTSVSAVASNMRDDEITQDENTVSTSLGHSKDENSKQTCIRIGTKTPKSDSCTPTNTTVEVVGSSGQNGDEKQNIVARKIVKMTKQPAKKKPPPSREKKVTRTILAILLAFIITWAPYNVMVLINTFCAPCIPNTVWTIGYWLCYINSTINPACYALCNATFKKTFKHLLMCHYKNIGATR", "assay": "Effective dose against affinity towards human muscarinic M2 receptor", "type": "functional"}, "[4]": {"target": "T4, Muscarinic acetylcholine receptor M2 (Homo sapiens, UniProt P08172)", "T4 sequence (P08172 whole entry)": "T3 sequence (whole entry)", "assay": "Binding affinity towards human muscarinic M2 receptor"}, "[5]": {"target": "T2, Muscarinic acetylcholine receptor M1 (Homo sapiens)", "description": "Effective dose against affinity towards human muscarinic M1 receptor"}, "Rattus norvegicus [6]": {"species": "Rattus norvegicus", "assay": "Compound was evaluated for minimum effective dose in the rat radial arm maze model", "type": "functional", "conditions": "read-out: MED"}, "[7]": {"assay": "Compound was evaluated in vivo for lethal dose in rats", "type": "ADME, organism-based", "conditions": "rat"}, "[8]": {"assay": "Compound was evaluated for half-life in human liver microsomes", "type": "ADME, Microsome"}, "Monkey [9]": {"tested_on": "Monkey", "assay": "In vivo cognitive assessment after oral administration of WAY-132983 in primates (Rhesus and cynomolgus monkeys) using pre-trained aged subjects (long delay)", "type": "functional", "conditions": "Cercopithecidae, read-out: MED"}, "Monkey [10]": {"tested_on": "Monkey", "assay": "In vivo cognitive assessment after oral administration of WAY-132983 in primates (Rhesus and cynomolgus monkeys) using pre-trained aged subjects (short delay)", "type": "functional", "conditions": "Cercopithecidae, read-out: MED"}, "[11]": {"target": "T5, Muscarinic acetylcholine receptor M3 (Homo sapiens, UniProt P20309)", "T5 sequence (P20309 whole entry)": "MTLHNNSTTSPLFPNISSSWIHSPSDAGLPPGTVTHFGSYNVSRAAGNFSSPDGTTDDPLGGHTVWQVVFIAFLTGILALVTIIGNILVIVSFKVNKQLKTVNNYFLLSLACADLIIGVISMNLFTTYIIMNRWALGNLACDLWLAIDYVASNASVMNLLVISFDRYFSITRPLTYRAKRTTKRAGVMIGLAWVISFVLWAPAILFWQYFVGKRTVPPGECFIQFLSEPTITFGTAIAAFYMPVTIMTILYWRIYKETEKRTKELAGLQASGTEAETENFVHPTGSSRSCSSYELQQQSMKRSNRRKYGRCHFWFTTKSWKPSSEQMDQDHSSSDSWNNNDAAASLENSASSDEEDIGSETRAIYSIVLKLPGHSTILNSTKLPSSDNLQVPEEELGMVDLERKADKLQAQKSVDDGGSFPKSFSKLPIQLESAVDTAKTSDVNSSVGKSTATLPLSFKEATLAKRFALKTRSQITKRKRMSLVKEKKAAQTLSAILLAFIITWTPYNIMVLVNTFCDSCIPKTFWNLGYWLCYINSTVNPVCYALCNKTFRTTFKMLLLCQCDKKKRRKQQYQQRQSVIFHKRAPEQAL", "assay": "In vitro functional agonism against M3 muscarinic receptor (PI)"}, "[12]": {"target": "T5, Muscarinic acetylcholine receptor M3", "assay": "Binding affinity towards human muscarinic M3 receptor"}, "[13]": {"target": "T1, Muscarinic acetylcholine receptor M1", "assay": "In vitro functional agonism against M1 muscarinic receptor (PI)"}, "[14]": {"target": "T6, Muscarinic acetylcholine receptor M1 (Rattus norvegicus, UniProt P08482)", "T6 sequence (P08482 whole entry)": "T1 sequence (P11229 whole entry) with A5V, T254S, P309S, R320K, A337G, I413V", "assay": "Binding affinity against M1 receptor was determined by displacing [3H]OXO-M in rat cortical homogenate"}, "[15]": {"target": "T4, Muscarinic acetylcholine receptor M2", "assay": "In vitro functional agonism against M2 muscarinic receptor (cAMP)"}, "Rattus norvegicus [16]": {"tested_on": "Rattus norvegicus", "assay": "Compound was evaluated in vivo for cognitive impairment reduction in AF64-impaired RAM, rat administered subcutaneously", "type": "functional", "conditions": "sc, read-out: MED"}},
  "note": "Substitutions are numbered along the chain they refer to.",
  "data": [
    {"smiles": "CCCCCCSc1nccnc1OC1CN2CCC1C2", "note": "(stereo in doubt; 4) [listing 1 of 2 here]", "values": [
      {"measurement": "Ki", "setting": "[1]", "value": 0.007, "unit": "µM"}
    ]},
    {"smiles": "CCCCCCSc1nccnc1O[C@@H]1CN2CCC1C2", "note": "(stereo not given in full)", "values": [
      {"measurement": "Ki", "setting": "[1]", "value": 0.075, "unit": "µM"},
      {"measurement": "PI", "setting": "[2]", "value": 107, "unit": "%"}
    ]},
    {"smiles": "CCCCCCOc1nccnc1O[C@@H]1CN2CCC1C2", "note": "(stereo in doubt; 6)", "values": [
      {"measurement": "Ki", "setting": "[1]", "value": 0.014, "unit": "µM"}
    ]},
    {"smiles": "CCCCCCSc1nccnc1OC1CN2CCC1C2", "note": "(stereo in doubt; 8)", "values": [
      {"measurement": "PI", "setting": "[2]", "value": 104, "unit": "%"}
    ]},
    {"smiles": "CCCCCCOc1nccnc1OC1CN2CCC1C2", "note": "(stereo not given)", "values": [
      {"measurement": "PI", "setting": "[2]", "value": 88, "unit": "%"},
      {"measurement": "ED50", "setting": "[3]", "value": 0.6, "unit": "µM"},
      {"measurement": "Ki", "setting": "[4]", "value": 0.02, "unit": "µM"},
      {"measurement": "ED50", "setting": "[5]", "value": 0.0014, "unit": "µM"}
    ]},
    {"smiles": "CCCCCCSc1nccnc1O[C@H]1CN2CCC1C2", "note": "(stereo not given in full)", "values": [
      {"measurement": "Ki", "setting": "[1]", "value": 0.124, "unit": "µM"}
    ]},
    {"smiles": "c1cnc(O[C@@H]2CN3CCC2C3)cn1", "note": "(stereo in doubt; 2) [listing 1 of 2 here]", "values": [
      {"measurement": "PI", "setting": "[2]", "value": 83, "unit": "%"}
    ]},
    {"smiles": "CNC(=O)O[C@@H]1CN2CCC1C2", "note": "(stereo not given in full)", "values": [
      {"measurement": "Ki", "setting": "[1]", "value": 26, "unit": "µM"},
      {"measurement": "PI", "setting": "[2]", "value": 100, "unit": "%"},
      {"measurement": "minimal effective dose", "setting": "Rattus norvegicus [6]", "value": 1, "unit": "mg/kg"}
    ]},
    {"smiles": "CCCCCCOc1nccnc1O[C@@H]1CN2CCC1C2", "note": "(stereo in doubt; 12) [listing 1 of 2 here]", "values": [
      {"measurement": "PI", "setting": "[2]", "value": 9, "unit": "%"}
    ]},
    {"smiles": "CCCCCCOc1nccnc1O[C@H]1CN2CCC1C2", "note": "(stereo not given in full)", "values": [
      {"measurement": "Ki", "setting": "[1]", "value": 0.69, "unit": "µM"},
      {"measurement": "PI", "setting": "[2]", "value": 56, "unit": "%"}
    ]},
    {"smiles": "c1cnc(O[C@@H]2CN3CCC2C3)cn1", "note": "(stereo in doubt; 1) [listing 1 of 2 here]", "values": [
      {"measurement": "Ki", "setting": "[1]", "value": 5.6, "unit": "µM"},
      {"measurement": "Ki", "setting": "[4]", "value": 0.04, "unit": "µM"},
      {"measurement": "LD50", "setting": "[7]", "value": 30, "unit": "mg/kg"}
    ]},
    {"smiles": "CCCCCCSc1nccnc1SC1CN2CCC1C2", "note": "(stereo not given)", "values": [
      {"measurement": "PI", "setting": "[2]", "value": 62, "unit": "%"}
    ]},
    {"smiles": "CCCCCCSc1nccnc1O[C@H]1CN2CCC1C2.Cl", "note": "(stereo not given in full)", "values": [
      {"measurement": "half-life", "setting": "[8]", "value": 1.88, "unit": "h"},
      {"measurement": "minimal effective dose", "setting": "Monkey [9]", "value": 0.01, "unit": "mg/kg"},
      {"measurement": "minimal effective dose", "setting": "Monkey [10]", "value": 0.03, "unit": "mg/kg"},
      {"measurement": "EC50", "setting": "[11]", "value": 0.0037, "unit": "µM"},
      {"measurement": "Ki", "setting": "[12]", "value": 0.0059, "unit": "µM"},
      {"measurement": "EC50", "setting": "[13]", "value": 0.0011, "unit": "µM"},
      {"measurement": "Ki", "setting": "[1]", "value": 0.002, "unit": "µM"},
      {"measurement": "Ki", "setting": "[14]", "value": 0.0004, "unit": "µM"},
      {"measurement": "EC50", "setting": "[15]", "value": 0.008, "unit": "µM"},
      {"measurement": "Ki", "setting": "[4]", "value": 0.0034, "unit": "µM"},
      {"measurement": "minimal effective dose", "setting": "Rattus norvegicus [16]", "value": 0.03, "unit": "mg/kg"}
    ]},
    {"smiles": "CCCCCCOc1nccnc1O[C@@H]1CN2CCC1C2", "note": "(stereo in doubt; 12) [listing 2 of 2 here]", "values": [
      {"measurement": "Ki", "setting": "[1]", "value": 0.465, "unit": "µM"}
    ]},
    {"smiles": "CCCCCCSc1nccnc1OC1CN2CCC1C2", "note": "(stereo in doubt; 4) [listing 2 of 2 here]", "values": [
      {"measurement": "PI", "setting": "[2]", "value": 85, "unit": "%"}
    ]},
    {"smiles": "CCCCCCSc1cncc(OC2CN3CCC2C3)n1", "note": "(stereo not given)", "values": [
      {"measurement": "Ki", "setting": "[1]", "value": 0.022, "unit": "µM"},
      {"measurement": "PI", "setting": "[2]", "value": 2, "unit": "%"}
    ]},
    {"smiles": "CCCCCCOc1nccnc1SC1CN2CCC1C2", "note": "(stereo not given)", "values": [
      {"measurement": "PI", "setting": "[2]", "value": 42, "unit": "%"}
    ]},
    {"smiles": "c1cnc(O[C@@H]2CN3CCC2C3)cn1", "note": "(stereo in doubt; 2) [listing 2 of 2 here]", "values": [
      {"measurement": "Ki", "setting": "[1]", "value": 2.5, "unit": "µM"}
    ]},
    {"smiles": "c1cnc(O[C@@H]2CN3CCC2C3)cn1", "note": "(stereo in doubt; 1) [listing 2 of 2 here]", "values": [
      {"measurement": "PI", "setting": "[2]", "value": 96, "unit": "%"}
    ]},
    {"smiles": "CCCCCCOc1nsnc1C1=CCCN(C)C1", "values": [
      {"measurement": "PI", "setting": "[2]", "value": 79, "unit": "%"}
    ]}
  ]
}
